Measured values reported in patent US5391540A, “Substituted pyridine compounds” (Rohm and Haas Company, priority 1993, dated 1995).

Columns and labels:
Assay type in all cases: in vivo
[1] = system: Barnyardgrass; experiment: Pre-emergent herbicidal activity (Table A); conditions: Echinochloa crus-galli, pre-emergence, Bygr, 11.2 kg/ha, 10-14 days, read-out: herbicidal rating (% inhibition)
In short: (§1)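 Seeds or perennial propagules set on compacted topsoil, then covered with soil mixed with a known amount of test compound applied in acetone or water carrier. Ratings assigned on a scale based on percent inhibition of each species.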

[2] = system: Cocklebur; experiment: Pre-emergent herbicidal activity (Table A); conditions: Xanthium strumarium, pre-emergence, Cobu, 11.2 kg/ha, 10-14 days, read-out: herbicidal rating (% inhibition)
In short: as §1

[3] = system: Downy Brome; experiment: Pre-emergent herbicidal activity (Table A); conditions: Bromus tectorum, pre-emergence, Dobr, 11.2 kg/ha, 10-14 days, read-out: herbicidal rating (% inhibition)
In short: as §1

[4] = system: Morningglory; experiment: Pre-emergent herbicidal activity (Table A); conditions: Ipomoea, pre-emergence, Mogl, 11.2 kg/ha, 10-14 days, read-out: herbicidal rating (% inhibition)
In short: as §1

[5] = system: Velvetleaf; experiment: Pre-emergent herbicidal activity (Table A); conditions: Abutilon theophrasti, pre-emergence, Vele, 11.2 kg/ha, 10-14 days, read-out: herbicidal rating (% inhibition)
In short: as §1

[6] = system: Yellow Nutsedge; experiment: Pre-emergent herbicidal activity (Table A); conditions: Cyperus, pre-emergence, Yens, 11.2 kg/ha, 10-14 days, read-out: herbicidal rating (% inhibition)
In short: as §1

[7] = system: Bygr; experiment: plant injury after spraying emerged plants (Table D); design: scale not given here
Description: (§2) Topsoil (silt loam) is sieved through a screen having 1.27 cm openings. […] This mixture is steam sterilized and then placed in aluminum pans 6.985 cm deep having ten holes in the bottom each 0.635 cm in diameter. The soil mixture is compacted to a depth of 1.27 cm. from the top of the pan. A predetermined number of seeds of each of several dicotyledonous and monocotyledonous annual plant species and/or vegetative propagules for the perennial plant species are placed on the soil and pressed into the soil surface. The seeds and/or vegetative propagules are covered with 1.27 cm of a mixture of 50% topsoil and 50% of a mixture of Canadian sphagnum peat moss, vermiculite and a wetting agent. The pans are then placed on a capillary mat on a greenhouse bench and subirrigated as needed.
(§3) In the following Table D the legends used to identify the plant species are the same as those used in the preceding Table B.

[8] = system: Cobu; experiment: as above; design: scale not given here
Description: as §2, §3

[9] = system: Corn; experiment: as above; design: scale not given here
Description: as §2, §3

[10] = system: Grft; experiment: as above; design: scale not given here
Description: as §2, §3

[11] = system: Grso; experiment: as above; design: scale not given here
Description: as §2, §3

[12] = system: Lacg; experiment: as above; design: scale not given here
Description: as §2, §3

[13] = system: Rice; experiment: as above; design: scale not given here
Description: as §2, §3

[14] = system: Sobe; experiment: as above; design: scale not given here
Description: as §2, §3

[15] = system: Whez; experiment: as above; design: scale not given here
Description: as §2, §3

[16] = system: Dobr; experiment: as above
Description: Topsoil (silt loam) is sieved through a screen having 1.27 cm openings. In some of the tests the soil was mixed with fertilizer (1225 g/cu. m of 12/5/9 containing isobutylidene diurea), while in other tests the fertilizer was omitted. This mixture is steam sterilized and then placed in aluminum pans 6.985 cm deep having ten holes in the bottom each 0.635 cm in diameter. The soil mixture is compacted to a depth of 1.27 cm. from the top of the pan. A predetermined number of seeds of each of several dicotyledonous and monocotyledonous annual plant species and/or vegetative propagules for the perennial plant species are placed on the soil and pressed into the soil surface. The seeds and/or vegetative propagules are covered with 1.27 cm of a mixture of 50% topsoil and 50% of a mixture of Canadian sphagnum peat moss, vermiculite and a wetting agent. The pans are then placed on a capillary mat on a greenhouse bench and subirrigated as needed. After the plants reach the desired stage (9 to 14 days, 1 to 3 true leaf stage), each pan (except the control pans) is removed to a spraying chamber and sprayed by means of an atomizer, operating at a spray pressure of 170.3 kPa ([…]) at the application rates noted in Table D. In the spray solution is an amount of an emulsifying agent mixture (35% butylamine salt of dodecylbenzenesulfonic acid and 65% tall oil condensed with ethylene oxide in the ratio of 11 mols of ethylene oxide/mol of tall oil) to give a spray solution or suspension. The spray solution or suspension contains a sufficient amount of the candidate chemical in order to give application rates of the active ingredient corresponding to those shown in Table D below while applying a total amount of solution or suspension equivalent to 1870 L/Ha (200 gallons/acre). The pans are returned to the greenhouse and watered as before and the injury to the plants as compared to the control pans is observed at approximately 10-14 days (usually 11 days).
as §3

COC(=O)c1c(OC)nc(C(F)(F)Cl)c(C(=O)OC)c1CC(C)C [Compound 30, 3,5-pyridinedicarboxylic acid, 2-(chlorodifluoromethyl)-6-methoxy-4-(2-methylpropyl)-, dimethyl ester]
25 to 49%: inhibition at 11200 g/ha [2]
75 to 100%: inhibition at 11200 g/ha [1] | inhibition at 11200 g/ha [3] | inhibition at 11200 g/ha [4] | inhibition at 11200 g/ha [5]
50 to 74%: inhibition at 11200 g/ha [6]
0: plant injury rating, Bygr ([7]; 0.5605 kg/ha) | plant injury rating, Bygr ([7]; 1.1210 kg/ha) | plant injury rating, Cobu ([8]; 0.5605 kg/ha) | plant injury rating, Cobu ([8]; 1.1210 kg/ha) | plant injury rating, Grft ([10]; 1.1210 kg/ha) | plant injury rating, Grso ([11]; 0.5605 kg/ha) | plant injury rating, Grso ([11]; 1.1210 kg/ha) | plant injury rating, Lacg ([12]; 1.1210 kg/ha) | plant injury rating, Rice ([13]; 0.5605 kg/ha) | plant injury rating, Rice ([13]; 1.1210 kg/ha) | plant injury rating, Rice ([13]; 2.8025 kg/ha) | plant injury rating, Rice ([13]; 5.6050 kg/ha) | plant injury rating, Rice ([13]; 8.4075 kg/ha) | plant injury rating, Rice ([13]; 11.2100 kg/ha) | plant injury rating, Sobe ([14]; 0.5605 kg/ha) | plant injury rating, Whez ([15]; 0.5605 kg/ha) | plant injury rating, Whez ([15]; 1.1210 kg/ha) | plant injury rating, Whez ([15]; 2.8025 kg/ha) | plant injury rating, Whez ([15]; 5.6050 kg/ha) | plant injury rating, Whez ([15]; 8.4075 kg/ha) | plant injury rating, Whez ([15]; 11.2100 kg/ha) | plant injury rating, Dobr ([16]; 0.5605 kg/ha) | plant injury rating, Dobr ([16]; 1.1210 kg/ha) | plant injury rating, Dobr ([16]; 2.8025 kg/ha) | plant injury rating, Dobr ([16]; 5.6050 kg/ha) | plant injury rating, Dobr ([16]; 8.4075 kg/ha) | plant injury rating, Dobr ([16]; 11.2100 kg/ha)
2: plant injury rating, Bygr ([7]; 2.8025 kg/ha) | plant injury rating, Cobu ([8]; 8.4075 kg/ha) | plant injury rating, Cobu ([8]; 11.2100 kg/ha) | plant injury rating, Corn ([9]; 2.8025 kg/ha) | plant injury rating, Corn ([9]; 11.2100 kg/ha) | plant injury rating, Grft ([10]; 2.8025 kg/ha) | plant injury rating, Grft ([10]; 5.6050 kg/ha) | plant injury rating, Lacg ([12]; 2.8025 kg/ha) | plant injury rating, Lacg ([12]; 5.6050 kg/ha)
1: plant injury rating, Bygr ([7]; 5.6050 kg/ha) | plant injury rating, Bygr ([7]; 8.4075 kg/ha) | plant injury rating, Bygr ([7]; 11.2100 kg/ha) | plant injury rating, Cobu ([8]; 2.8025 kg/ha) | plant injury rating, Cobu ([8]; 5.6050 kg/ha) | plant injury rating, Corn ([9]; 0.5605 kg/ha) | plant injury rating, Corn ([9]; 1.1210 kg/ha) | plant injury rating, Corn ([9]; 5.6050 kg/ha) | plant injury rating, Corn ([9]; 8.4075 kg/ha) | plant injury rating, Grft ([10]; 0.5605 kg/ha) | plant injury rating, Grft ([10]; 8.4075 kg/ha) | plant injury rating, Grft ([10]; 11.2100 kg/ha) | plant injury rating, Grso ([11]; 2.8025 kg/ha) | plant injury rating, Grso ([11]; 5.6050 kg/ha) | plant injury rating, Grso ([11]; 8.4075 kg/ha) | plant injury rating, Grso ([11]; 11.2100 kg/ha) | plant injury rating, Lacg ([12]; 0.5605 kg/ha) | plant injury rating, Lacg ([12]; 8.4075 kg/ha) | plant injury rating, Lacg ([12]; 11.2100 kg/ha) | plant injury rating, Sobe ([14]; 1.1210 kg/ha) | plant injury rating, Sobe ([14]; 2.8025 kg/ha) | plant injury rating, Sobe ([14]; 5.6050 kg/ha) | plant injury rating, Sobe ([14]; 8.4075 kg/ha) | plant injury rating, Sobe ([14]; 11.2100 kg/ha)

COC(=O)c1c(OC)nc(C(F)(F)F)c(C2=NCCS2)c1CC(C)C [Compound 50, 3-pyridinecarboxylic acid, 5-(4,5-dihydro-2-thiazolyl)-2-methoxy-4-(2-methylpropyl)-6-(trifluoromethyl)-, methyl ester]
0: plant injury rating, Bygr ([7]; 0.0701 kg/ha) | plant injury rating, Bygr ([7]; 0.2803 kg/ha) | plant injury rating, Cobu ([8]; 0.0701 kg/ha) | plant injury rating, Corn ([9]; 0.0701 kg/ha) | plant injury rating, Corn ([9]; 0.2803 kg/ha) | plant injury rating, Grft ([10]; 0.0701 kg/ha) | plant injury rating, Grso ([11]; 0.0701 kg/ha) | plant injury rating, Grso ([11]; 0.2803 kg/ha) | plant injury rating, Grso ([11]; 1.1210 kg/ha) | plant injury rating, Rice ([13]; 0.0701 kg/ha) | plant injury rating, Rice ([13]; 0.2803 kg/ha) | plant injury rating, Rice ([13]; 5.3808 kg/ha) | plant injury rating, Sobe ([14]; 0.0701 kg/ha) | plant injury rating, Whez ([15]; 0.0701 kg/ha) | plant injury rating, Whez ([15]; 0.2803 kg/ha) | plant injury rating, Whez ([15]; 1.1210 kg/ha) | plant injury rating, Whez ([15]; 5.3808 kg/ha) | plant injury rating, Dobr ([16]; 0.0701 kg/ha) | plant injury rating, Dobr ([16]; 1.1210 kg/ha) | plant injury rating, Dobr ([16]; 5.3808 kg/ha)
3: plant injury rating, Cobu ([8]; 5.3808 kg/ha) | plant injury rating, Lacg ([12]; 0.2803 kg/ha) | plant injury rating, Lacg ([12]; 1.1210 kg/ha) | plant injury rating, Lacg ([12]; 5.3808 kg/ha) | plant injury rating, Sobe ([14]; 5.3808 kg/ha)
75 to 100%: inhibition at 11200 g/ha [1] | inhibition at 11200 g/ha [2] | inhibition at 11200 g/ha [3] | inhibition at 11200 g/ha [4] | inhibition at 11200 g/ha [5] | inhibition at 11200 g/ha [6]
2: plant injury rating, Cobu ([8]; 1.1210 kg/ha) | plant injury rating, Grft ([10]; 5.3808 kg/ha) | plant injury rating, Sobe ([14]; 1.1210 kg/ha)
1: plant injury rating, Bygr ([7]; 1.1210 kg/ha) | plant injury rating, Cobu ([8]; 0.2803 kg/ha) | plant injury rating, Grft ([10]; 0.2803 kg/ha) | plant injury rating, Grft ([10]; 1.1210 kg/ha) | plant injury rating, Rice ([13]; 1.1210 kg/ha) | plant injury rating, Sobe ([14]; 0.2803 kg/ha)
